The results in this text go back to patent US20070219186A1, “Pyrazolo[1,5-A]pyrimidine derivatives and methods of use thereof” (priority 2006, published 2007).

pIC50: −log10 of the molar value. Where two headings read alike, the source gives them in different places. Some results are limits rather than exact numbers.

For this assay, the target named is T1, human B-Raf (Homo sapiens, UniProt P15056).
T1 construct: Flag; GST; made in house; host or cells: Sf9 insect cells (B-Raf); E. coli (MEK1-GST)
Kind of assay: B-Raf Kinase to MEK1 ELISA. The format is biochemical. The note with it: for inhibition at 10 µM: read-out: % Inhib./10 uM. Put shortly:
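Read-out is a DELFIA europium signal from phospho-MEK1 (Ser217/221) antibody after capture of GST-MEK1 (50 nM final) on anti-GST plates. Phosphorylation comes from Sf9-expressed Flag/GST human B-Raf (~20 ng) with ATP/MgCl2, 60 min RT, pH 7.2 MOPS.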
In general terms: ELISA stands for enzyme-linked immunosorbent assay.

[1] abbreviates: median, cpd concentrations from 10 μM to 30 nM in half log dilutions, read-out: Median IC50.

T1 sequence (P15056 whole entry): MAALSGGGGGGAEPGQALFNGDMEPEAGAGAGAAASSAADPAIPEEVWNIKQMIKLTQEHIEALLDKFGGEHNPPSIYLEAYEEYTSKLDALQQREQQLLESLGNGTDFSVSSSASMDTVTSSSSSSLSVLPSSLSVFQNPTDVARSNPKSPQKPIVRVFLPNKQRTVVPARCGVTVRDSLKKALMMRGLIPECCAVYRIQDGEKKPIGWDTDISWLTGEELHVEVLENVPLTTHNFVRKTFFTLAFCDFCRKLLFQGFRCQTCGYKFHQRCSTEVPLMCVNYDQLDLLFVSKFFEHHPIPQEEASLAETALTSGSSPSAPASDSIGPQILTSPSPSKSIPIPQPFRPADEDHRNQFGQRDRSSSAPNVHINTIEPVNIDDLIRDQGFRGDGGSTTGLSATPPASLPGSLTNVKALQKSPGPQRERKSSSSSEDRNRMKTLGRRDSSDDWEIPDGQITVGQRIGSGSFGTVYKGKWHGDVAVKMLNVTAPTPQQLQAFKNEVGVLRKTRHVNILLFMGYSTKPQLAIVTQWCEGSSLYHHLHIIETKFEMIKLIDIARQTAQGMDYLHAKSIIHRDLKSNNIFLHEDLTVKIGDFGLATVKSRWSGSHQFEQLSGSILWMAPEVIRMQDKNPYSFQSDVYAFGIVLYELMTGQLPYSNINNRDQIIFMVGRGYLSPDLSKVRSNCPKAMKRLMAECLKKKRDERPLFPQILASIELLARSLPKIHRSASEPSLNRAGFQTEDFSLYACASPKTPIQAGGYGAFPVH

As a reminder, the pIC50 is the IC50 on a negative log10 scale, so that one unit is a factor of ten. With `O=C(Nc1cccc(-c2ccnc3c(-c4ccncc4)cnn23)c1)Nc1ccc(F)c(C(F)(F)F)c1` [Example 193, N-[4-fluoro-3-(trifluoromethyl)phenyl]-N′-[3-(3-pyridin-4-ylpyrazolo[1,5-a]pyrimidin-7-yl)phenyl]urea], the inhibition at 10 µM was 79%. Further, the negative logarithm of the IC50 (pIC50) under setting [1] was 6.30.
On the same counts, the results for `Cc1ccc(C(=O)Nc2cccc(-c3ccnc4cc(N5CCOCC5)nn34)c2)cc1C(F)(F)F` [Example 194, 4-methyl-N-[3-(2-morpholin-4-ylpyrazolo[1,5-a]pyrimidin-7-yl)phenyl]-3-(trifluoromethyl)benzamide] are 96% and 6.96.
`COc1ccc(C(=O)Nc2cccc(-c3ccnc4cc(N5CCOCC5)nn34)c2)cc1C(F)(F)F` [Example 195, 4-methoxy-N-[3-(2-morpholin-4-ylpyrazolo[1,5-a]pyrimidin-7-yl)phenyl]-3-(trifluoromethyl)benzamide]: the inhibition at 10 µM worked out at 93%. Besides, the negative-log IC50 (pIC50) under setting [1] is 6.66.
In the same order, the values of `O=C(Nc1cccc(-c2ccnc3cc(N4CCOCC4)nn23)c1)c1ccc(F)c(C(F)(F)F)c1` [Example 196, 4-fluoro-N-[3-(2-morpholin-4-ylpyrazolo[1,5-a]pyrimidin-7-yl)phenyl]-3-(trifluoromethyl)benzamide] are 96% and 7.05.
On the same counts, the results for `O=C(Nc1cccc(-c2ccnc3cc(N4CCOCC4)nn23)c1)c1ccc(Cl)c(C(F)(F)F)c1` [Example 197, 4-chloro-N-[3-(2-morpholin-4-ylpyrazolo[1,5-a]pyrimidin-7-yl)phenyl]-3-(trifluoromethyl)benzamide] are 91% and 6.70.
In the same order, the values of `O=C(Nc1cccc(-c2ccnc3cc(N4CCOCC4)nn23)c1)c1ccc(Cl)c(Cl)c1` [Example 198, 3,4-dichloro-N-[3-(2-morpholin-4-ylpyrazolo[1,5-a]pyrimidin-7-yl)phenyl]benzamide] are 56% and 5.72.
Turning to `O=C(Nc1cccc(-c2ccnc3cc(N4CCOCC4)nn23)c1)Nc1cccc(C(F)(F)F)c1` [Example 199, N-[3-(2-morpholin-4-ylpyrazolo[1,5-a]pyrimidin-7-yl)phenyl]-N′-[3-(trifluoromethyl)phenyl]urea], the inhibition at 10 µM amounted to 96%. The negative logarithm of the IC50 (pIC50) under setting [1] was 6.92.
On the same counts, the results for `O=C(Nc1cccc(-c2ccnc3cc(N4CCOCC4)nn23)c1)Nc1ccc(Cl)c(C(F)(F)F)c1` [Example 200, N-[4-chloro-3-(trifluoromethyl)phenyl]-N′-[3-(2-morpholin-4-ylpyrazolo[1,5-a]pyrimidin-7-yl)phenyl]urea] are 94% and 6.70.
On the same counts, the results for `O=C(Nc1cccc(-c2ccnc3cc(N4CCOCC4)nn23)c1)Nc1ccc(Cl)c(Cl)c1` [Example 201, N-(3,4-dichlorophenyl)-N′-[3-(2-morpholin-4-ylpyrazolo[1,5-a]pyrimidin-7-yl)phenyl]urea] are 96% and 7.00.
On the same counts, the results for `O=C(Nc1cccc(-c2ccnc3cc(N4CCOCC4)nn23)c1)Nc1ccc(F)c(C(F)(F)F)c1` [Example 202, N-[4-fluoro-3-(trifluoromethyl)phenyl]-N′-[3-(2-morpholin-4-ylpyrazolo[1,5-a]pyrimidin-7-yl)phenyl]urea] are 96% and 6.92.
In the case of `CN1CCN(c2cc3nccc(-c4cccc(NC(=O)c5cccc(C(F)(F)F)c5)c4)n3n2)CC1` [Example 203, N-{3-[2-(4-methylpiperazin-1-yl)pyrazolo[1,5-a]pyrimidin-7-yl]phenyl}-3-(trifluoromethyl)benzamide], the negative-log IC50 (pIC50) was below 5.00 and the inhibition at 10 µM came out at 16%.
For `CN(C)CC#Cc1cnn2c(-c3cccc(NC(=O)c4cccc(C(F)(F)F)c4)c3)ccnc12` [Example 205, N-(3-{3-[3-(dimethylamino)prop-1-yn-1-yl]pyrazolo[1,5-a]pyrimidin-7-yl}phenyl)-3-(trifluoromethyl)benzamide], the inhibition at 10 µM worked out at 81%. Further, the pIC50 under setting [1] was 5.76.
In the same order, the values of `CC(C)(C)OC(=O)N1CCN(c2cc3nccc(-c4cccc(NC(=O)c5cccc(C(F)(F)F)c5)c4)n3n2)CC1` [Example 206, tert-butyl 4-[7-(3-{[3-(trifluoromethyl)benzoyl]amino}phenyl)pyrazolo[1,5-a]pyrimidin-2-yl]piperazine-1-carboxylate] are 18% and below 5.00.
On the same counts, the results for `O=C(Nc1cccc(-c2ccnc3cc(N4CCN(Cc5ccccc5)CC4)nn23)c1)c1cccc(C(F)(F)F)c1` [Example 207, N-{3-[2-(4-benzylpiperazin-1-yl)pyrazolo[1,5-a]pyrimidin-7-yl]phenyl}-3-(trifluoromethyl)benzamide] are 0% and below 5.00.
In turn, `O=C(Nc1cccc(-c2ccnc3cc(N4CCNCC4)nn23)c1)c1cccc(C(F)(F)F)c1` [Example 208, N-[3-(2-piperazin-1-ylpyrazolo[1,5-a]pyrimidin-7-yl)phenyl]-3-(trifluoromethyl)benzamide] gave a pIC50 of 5.21. Besides, the “% Inhib./10 uM” value (single point assay, 10 uM) is listed as 54%.
For `CN(C)C1CCN(c2cc3nccc(-c4cccc(NC(=O)c5cccc(C(F)(F)F)c5)c4)n3n2)C1` (stereo not drawn) [Example 209, N-(3-{2-[3-(dimethylamino)pyrrolidin-1-yl]pyrazolo[1,5-a]pyrimidin-7-yl}phenyl)-3-(trifluoromethyl)benzamide], the inhibition at 10 µM stood at 24%. The negative logarithm of the IC50 (pIC50) under setting [1] was below 5.00.
In the case of `COC[C@H]1CCCN1c1cc2nccc(-c3cccc(NC(=O)c4cccc(C(F)(F)F)c4)c3)n2n1` [Example 210, N-(3-{2-[(2R)-2-(methoxymethyl)pyrrolidin-1-yl]pyrazolo[1,5-a]pyrimidin-7-yl}phenyl)-3-(trifluoromethyl)benzamide], the inhibition at 10 µM came to 52%. Also, under setting [1], the pIC50 was 5.60.
Turning to `O=C(Nc1cccc(-c2ccnc3cc(N4CCC[C@H]4CN4CCCC4)nn23)c1)c1cccc(C(F)(F)F)c1` [Example 211, N-(3-{2-[(2S)-2-(pyrrolidin-1-ylmethyl)pyrrolidin-1-yl]pyrazolo[1,5-a]pyrimidin-7-yl}phenyl)-3-(trifluoromethyl)benzamide], the inhibition at 10 µM amounted to 47%. Moreover, under setting [1], the pIC50 is below 5.00.
With `CC(C)(C)OC(=O)NC1CCN(c2cc3nccc(-c4cccc(NC(=O)c5cccc(C(F)(F)F)c5)c4)n3n2)C1` (stereo not drawn) [Example 212, tert-butyl {1-[7-(3-{[3-(trifluoromethyl)benzoyl]amino}phenyl)pyrazolo[1,5-a]pyrimidin-2-yl]pyrrolidin-3-yl}carbamate], the inhibition at 10 µM is 22%. Further, the negative-log IC50 (pIC50) under setting [1] is below 5.00.
On the same counts, the results for `NC1CCN(c2cc3nccc(-c4cccc(NC(=O)c5cccc(C(F)(F)F)c5)c4)n3n2)C1` (stereo not drawn) [Example 213, N-{3-[2-(3-aminopyrrolidin-1-yl)pyrazolo[1,5-a]pyrimidin-7-yl]phenyl}-3-(trifluoromethyl)benzamide] are 40% and below 5.00.
`CCOC(=O)c1cnn2c(-c3cccc(NC(=O)c4cnccn4)c3)ccnc12` [Example 214, ethyl7-{3-[(pyrazin-2-ylcarbonyl)amino]phenyl}pyrazolo[1,5-a]pyrimidine-3-carboxylate]: the inhibition at 10 µM is 8%. Moreover, under setting [1], the negative logarithm of the IC50 (pIC50) is below 5.00.
